Data reported in the CheMixHub viscosity set.
Values joined by “and” are separate entries in the source; they are usually repeats but may differ in a detail not shown here. Identical values can stand only once.

Test: xn = mol fraction of the nth substance listed

N[C@@H](CO)C(=O)O + O
Conditions | viscosity
298 K, 101 kPa, x1 = 0.0004 | 0.8836 mPa·s
298 K, 101 kPa, x1 = 0.0007 | 0.8853 mPa·s
298 K, 101 kPa, x1 = 0.001 | 0.889 mPa·s and 0.8901 mPa·s
298.15 K, 101 kPa, x1 = 8.92e-05 | 0.9214 mPa·s
298.15 K, 101 kPa, x1 = 0.000181 | 0.9346 mPa·s
298.15 K, 101 kPa, x1 = 0.00045 | 0.9108 mPa·s
298.15 K, 101 kPa, x1 = 0.000898 | 0.9225 mPa·s
298.15 K, 101 kPa, x1 = 0.00135 | 0.9328 mPa·s
298.15 K, 101 kPa, x1 = 0.00178 | 0.9489 mPa·s
298.15 K, 101 kPa, x1 = 0.001798 | 0.942 mPa·s
298.15 K, 101 kPa, x1 = 0.002245 | 0.9508 mPa·s
298.15 K, 101 kPa, x1 = 0.002695 | 0.9596 mPa·s
298.15 K, 101 kPa, x1 = 0.003143 | 0.9678 mPa·s
298.15 K, 101 kPa, x1 = 0.00359 | 0.9758 mPa·s
298.15 K, 101 kPa, x1 = 0.003599 | 0.9614 mPa·s
298.15 K, 101 kPa, x1 = 0.005265 | 0.9714 mPa·s
298.15 K, 101 kPa, x1 = 0.007246 | 0.9945 mPa·s
298.15 K, 101 kPa, x1 = 0.008825 | 1.011 mPa·s
298.15 K, 101 kPa, x1 = 0.01096 | 1.024 mPa·s
298.15 K, 101 kPa, x1 = 0.01198 | 1.04 mPa·s
298.15 K, 101 kPa, x1 = 0.01387 | 1.059 mPa·s
298.15 K, 101.3 kPa, x1 = 0.0008915 | 0.901 mPa·s
298.15 K, 101.3 kPa, x1 = 0.001352 | 0.905 mPa·s
298.15 K, 101.3 kPa, x1 = 0.001784 | 0.909 mPa·s
298.15 K, 101.3 kPa, x1 = 0.002244 | 0.913 mPa·s
298.15 K, 101.3 kPa, x1 = 0.002683 | 0.917 mPa·s
303.15 K, 101 kPa, x1 = 0.00045 | 0.8151 mPa·s
303.15 K, 101 kPa, x1 = 0.000898 | 0.8252 mPa·s
303.15 K, 101 kPa, x1 = 0.00135 | 0.834 mPa·s
303.15 K, 101 kPa, x1 = 0.001798 | 0.8418 mPa·s
303.15 K, 101 kPa, x1 = 0.002245 | 0.8494 mPa·s
303.15 K, 101 kPa, x1 = 0.002695 | 0.8566 mPa·s
303.15 K, 101 kPa, x1 = 0.003143 | 0.8637 mPa·s
303.15 K, 101 kPa, x1 = 0.00359 | 0.8705 mPa·s
303.15 K, 101.3 kPa, x1 = 0.0008915 | 0.807 mPa·s
303.15 K, 101.3 kPa, x1 = 0.001352 | 0.811 mPa·s
303.15 K, 101.3 kPa, x1 = 0.001784 | 0.815 mPa·s
305.15 K, 101 kPa, x1 = 0.0003602 | 0.7851 mPa·s
305.15 K, 101 kPa, x1 = 0.0007201 | 0.7891 mPa·s
305.15 K, 101 kPa, x1 = 0.00108 | 0.7935 mPa·s
305.15 K, 101 kPa, x1 = 0.001439 | 0.7984 mPa·s
305.15 K, 101 kPa, x1 = 0.001798 | 0.8025 mPa·s
305.15 K, 101 kPa, x1 = 0.002157 | 0.8071 mPa·s
308.15 K, 101 kPa, x1 = 8.92e-05 | 0.7615 mPa·s
308.15 K, 101 kPa, x1 = 0.000181 | 0.7756 mPa·s
308.15 K, 101 kPa, x1 = 0.00045 | 0.7347 mPa·s
308.15 K, 101 kPa, x1 = 0.000898 | 0.7434 mPa·s
308.15 K, 101 kPa, x1 = 0.00135 | 0.751 mPa·s
308.15 K, 101 kPa, x1 = 0.00178 | 0.7901 mPa·s
308.15 K, 101 kPa, x1 = 0.001798 | 0.7578 mPa·s
308.15 K, 101 kPa, x1 = 0.002245 | 0.7641 mPa·s
308.15 K, 101 kPa, x1 = 0.002695 | 0.7704 mPa·s
308.15 K, 101 kPa, x1 = 0.003143 | 0.7764 mPa·s
308.15 K, 101 kPa, x1 = 0.00359 | 0.7822 mPa·s
308.15 K, 101 kPa, x1 = 0.003599 | 0.8056 mPa·s
308.15 K, 101 kPa, x1 = 0.005265 | 0.8198 mPa·s
308.15 K, 101 kPa, x1 = 0.007246 | 0.8356 mPa·s
308.15 K, 101 kPa, x1 = 0.008825 | 0.8542 mPa·s
308.15 K, 101 kPa, x1 = 0.01096 | 0.8741 mPa·s
308.15 K, 101 kPa, x1 = 0.01198 | 0.8898 mPa·s
308.15 K, 101 kPa, x1 = 0.01387 | 0.9046 mPa·s
310.15 K, 101 kPa, x1 = 0.0003602 | 0.7043 mPa·s
310.15 K, 101 kPa, x1 = 0.0007201 | 0.708 mPa·s
310.15 K, 101 kPa, x1 = 0.00108 | 0.7119 mPa·s
310.15 K, 101 kPa, x1 = 0.001439 | 0.7158 mPa·s
310.15 K, 101 kPa, x1 = 0.001798 | 0.7189 mPa·s
310.15 K, 101 kPa, x1 = 0.002157 | 0.7232 mPa·s
313.15 K, 101 kPa, x1 = 0.00045 | 0.6665 mPa·s
313.15 K, 101 kPa, x1 = 0.000898 | 0.6741 mPa·s
313.15 K, 101 kPa, x1 = 0.00135 | 0.6807 mPa·s
313.15 K, 101 kPa, x1 = 0.001798 | 0.6867 mPa·s
313.15 K, 101 kPa, x1 = 0.002245 | 0.6922 mPa·s
313.15 K, 101 kPa, x1 = 0.002695 | 0.6976 mPa·s
313.15 K, 101 kPa, x1 = 0.003143 | 0.7029 mPa·s
313.15 K, 101 kPa, x1 = 0.00359 | 0.7078 mPa·s
315.15 K, 101 kPa, x1 = 0.0003602 | 0.6498 mPa·s
315.15 K, 101 kPa, x1 = 0.0007201 | 0.6537 mPa·s
315.15 K, 101 kPa, x1 = 0.00108 | 0.6566 mPa·s
315.15 K, 101 kPa, x1 = 0.001439 | 0.66 mPa·s
315.15 K, 101 kPa, x1 = 0.001798 | 0.6629 mPa·s
315.15 K, 101 kPa, x1 = 0.002157 | 0.6666 mPa·s
318.15 K, 101 kPa, x1 = 8.92e-05 | 0.6512 mPa·s
318.15 K, 101 kPa, x1 = 0.000181 | 0.6602 mPa·s
318.15 K, 101 kPa, x1 = 0.00045 | 0.6097 mPa·s
318.15 K, 101 kPa, x1 = 0.000898 | 0.6164 mPa·s
318.15 K, 101 kPa, x1 = 0.00135 | 0.6222 mPa·s
318.15 K, 101 kPa, x1 = 0.00178 | 0.6723 mPa·s
318.15 K, 101 kPa, x1 = 0.001798 | 0.6275 mPa·s
318.15 K, 101 kPa, x1 = 0.002245 | 0.6324 mPa·s
318.15 K, 101 kPa, x1 = 0.002695 | 0.6371 mPa·s
318.15 K, 101 kPa, x1 = 0.003143 | 0.6417 mPa·s
318.15 K, 101 kPa, x1 = 0.00359 | 0.6461 mPa·s
318.15 K, 101 kPa, x1 = 0.003599 | 0.6845 mPa·s
318.15 K, 101 kPa, x1 = 0.005265 | 0.6953 mPa·s
318.15 K, 101 kPa, x1 = 0.007246 | 0.7012 mPa·s
318.15 K, 101 kPa, x1 = 0.008825 | 0.7125 mPa·s
318.15 K, 101 kPa, x1 = 0.01096 | 0.7242 mPa·s
318.15 K, 101 kPa, x1 = 0.01198 | 0.7345 mPa·s
318.15 K, 101 kPa, x1 = 0.01387 | 0.7466 mPa·s
